How the values were obtained:
[1] = tested on: Phospho-ERK (Thr202/Tyr204) in MiaPaCa-2 cells; test: pERK inhibition in MiaPaca-2 cell line (HTRF); type: cell-based; conditions: Homo sapiens, MIA PaCa-2, 1 hour incubation with compound
Protocol: MiaPaCa-2 cells (ATCC CRL-1420) were cultured in high glucose DMEM (Gibco 11965092) containing 10% fetal bovine serum (Gibco 1993708) and 1× Penicillin/Streptomycin, at 37° C. in a humid atmosphere of 5% CO2 in the air. Cells were plated in tissue-culture treated 96-well plates at a density of 10,000 cells/well and allowed to attach for 16 hours. The medium was then removed, and diluted compounds were added in a final concentration of 0.5% DMSO. After 1 hour of incubation, cells were lysed by the lysis buffer supplied with the Phospho-ERK (Thr202/Tyr204) cellular HTRF kit (Cisbio 64ERKPEH) and transferred to a 384-well low-volume white plate (PerkinElmer 6008280). The cell lysates were treated with the detection reagents supplied with the HTRF kit for 4 hours at ambient temperature in darkness. Two fluorescence intensities at the wavelengths (665 and 620 nm) were measured by the Envision plate reader (Perkin Elmer), and the data were processed and fitted to a 4-parameter logistic model for IC50 calculation (GraphPad Prism 9).

[2] = molecular target: KRAS^G12D-FMe.RAF1^RBDCRD complex (Homo sapiens, UniProt P01116, G12D); test: SHG assay: binding to bilayer-tethered KRAS G12D/RAF1 complex; conditions: GppNHp-loaded complex on PS bilayer; compound 0.027-40 μM, monitored over 60 min
Protocol: Compounds suspected to carry intrinsic SHG activity were tested in the presence of an unlabeled KRAS^G12D-FMe.RAF1^RBDCRD complex to monitor binding. PS bilayer was prepared from PS-enriched small unilamellar vesicles (SUVs) purchased from Biodesy, Inc. The concentrated SUVs were diluted in TBS buffer containing 5 mM CaCl2 and incubated on a glass-bottom 384-well Biodesy Delta™ assay plate to allow bilayer formation. Equimolar amounts of GppNHp-loaded KRAS^G12D-FMe and RAF1^RBDCRD were mixed and incubated together on PS bilayer overnight at 4° C. The following day, untethered protein was removed by washing with assay buffer (20 mM Hepes, pH 7.4, […], 1 mM TCEP, 5 μM GppNHp). The SHG signal produced by bilayer-tethered complex was ready using the Biodesy Delta™ platform where each well was pulsed with an 800 nm laser and the resulting second harmonic signal intensity at 400 nm was collected. Compounds were diluted into the same assay buffer and applied to the complex at a final concentration range spanning 0.027 μM-40 μM and the SHG intensity of each well was monitored at 5 minute intervals over a 60 minute time period.

Cc1ccc(-c2ncc(CNC(=O)C3(F)CC3)c(O[C@@H]3CNC[C@@H]3O)n2)cc1Cl (racemic) [Compound 100]
IC50 [1]: 10 to 50 µM

NCc1cnc(-c2ccc(Cl)c(C(F)(F)F)c2)nc1N1CC[C@@H](CN)C1 [Compound 1]
EC50 [2]: 1 to 10 µM
IC50 [1]: 10 to 50 µM

NC[C@@H]1CCN(c2nc(-c3ccc(Cl)c(C(F)(F)F)c3)ncc2C2=CCNC2)C1 [Compound 2, [(3S)-1-[2-[4-chloro-3-(trifluoromethyl)phenyl]-5-(2,5-dihydro-1H-pyrrol-3-yl)pyrimidin-4-yl]pyrrolidin-3-yl]methanamine]
EC50 [2]: 0.1 to 1 µM
IC50 [1]: 1 to 10 µM

NCCOc1cnc(-c2ccc(Cl)c(C(F)(F)F)c2)nc1N1CC[C@@H](CN)C1 [Compound 3, (S)-2-((4-(3-(aminomethyl)pyrrolidin-1-yl)-2-(4-chloro-3-(trifluoromethyl)phenyl)pyrimidin-5-yl)oxy)ethan-1-amine]
IC50 [1]: 1 to 10 µM

NCc1cnc(-c2ccc(Cl)c(C(F)(F)F)c2)nc1N1CCC(CN)C1 (centres unmarked) [Compound 4]
EC50 [2]: 1 to 10 µM

CS(=O)(=O)NCc1cnc(-c2ccc(Cl)c(C(F)(F)F)c2)nc1N1CCC(CN)C1 (centres unmarked) [Compound 6, N-[[4-[3-(aminomethyl)pyrrolidin-1-yl]-2-[4-chloro-3-(trifluoromethyl)phenyl]pyrimidin-5-yl]methyl]methanesulfonamide]
EC50 [2]: 1 to 10 µM

NCC1CCN(c2nc(-c3ccc(Cl)c(C(F)(F)F)c3)ncc2CNC(=O)C2(F)CC2)C1 (centres unmarked) [Compound 7]
EC50 [2]: 1 to 10 µM
IC50 [1]: 1 to 10 µM

NCC1CCN(c2nc(-c3ccc(C(F)(F)F)cc3F)ncc2C2=CCNC2)C1 (centres unmarked) [Compound 8]
IC50 [1]: 1 to 10 µM

NCC1CCN(c2nc(-c3ccc(Cl)c(C(F)(F)F)c3)ncc2CNC(=O)c2ccccc2)C1 (centres unmarked) [Compound 9]
EC50 [2]: 1 to 10 µM
IC50 [1]: 10 to 50 µM

NCC1CCN(c2nc(-c3ccc(Cl)c(Cl)c3)ncc2C2=CCNC2)C1 (centres unmarked) [Compound 10]
EC50 [2]: 1 to 10 µM
IC50 [1]: 1 to 10 µM

NCC1CCN(c2nc(-c3ccc(Cl)cc3F)ncc2C2=CCNC2)C1 (centres unmarked) [Compound 11]
IC50 [1]: 1 to 10 µM

NCC1CCN(c2nc(-c3ccc(Cl)c(C(F)(F)F)c3)ncc2OC2CCOC2)C1 (centres unmarked) [Compound 12]
EC50 [2]: 1 to 10 µM
IC50 [1]: 1 to 10 µM

NCC1CCN(c2nc(-c3ccc(Cl)c(C(F)(F)F)c3)ncc2OC2CNC2)C1 (centres unmarked) [Compound 13]
IC50 [1]: 1 to 10 µM

NC[C@@H]1CCN(c2nc(-c3ccc(Cl)c(C(F)(F)F)c3)ncc2C2CC2)C1 [Compound 14]
EC50 [2]: 1 to 10 µM
IC50 [1]: 10 to 50 µM

NCC1CCN(c2nc(-c3ccc(Cl)c(C(F)(F)F)c3)ncc2OC2CCNC2)C1 (centres unmarked) [Compound 15]
IC50 [1]: 1 to 10 µM

NCC1CCN(c2nc(-c3ccc(Cl)c(C(F)(F)F)c3)ncc2OC2COC2)C1 (centres unmarked) [Compound 16]
IC50 [1]: 1 to 10 µM

NCC1CCN(c2nc(-c3ccc(C(F)(F)F)cc3F)ncc2C2CCNC2)C1 (centres unmarked) [Compound 17, [1-[2-[2-fluoro-4-(trifluoromethyl)phenyl]-5-pyrrolidin-3-yl-pyrimidin-4-yl]pyrrolidin-3-yl]methanamine]
EC50 [2]: 1 to 10 µM
IC50 [1]: 1 to 10 µM

NCC1CCN(c2nc(-c3ccc(C(F)(F)F)cc3F)ncc2CNC(=O)Nc2ccccc2)C1 (centres unmarked) [Compound 19, 1-[[4-[3-(aminomethyl)pyrrolidin-1-yl]-2-[2-fluoro-4-(trifluoromethyl)phenyl]pyrimidin-5-yl]methyl]-3-phenyl-urea]
EC50 [2]: 1 to 10 µM
IC50 [1]: 1 to 10 µM

CCOC(=O)NCc1cnc(-c2ccc(C(F)(F)F)cc2F)nc1N1CCC(CN)C1 (centres unmarked) [Compound 21, ethyl N-[[4-[3-(aminomethyl)pyrrolidin-1-yl]-2-[2-fluoro-4-(trifluoromethyl)phenyl]pyrimidin-5-yl]methyl]carbamate]
IC50 [1]: 10 to 50 µM

N#Cc1cc(-c2ncc(C3=CCNC3)c(N3CCC(CN)C3)n2)ccc1Cl (centres unmarked) [Compound 22]
IC50 [1]: 1 to 10 µM

NCC1CCN(c2nc(-c3ccc(Cl)cc3NC(=O)C3(F)CC3)ncc2C2=CCNC2)C1 (centres unmarked) [Compound 23]
EC50 [2]: 1 to 10 µM
IC50 [1]: 1 to 10 µM

N#CC1(C(=O)NCc2cnc(-c3ccc(Cl)cc3F)nc2N2CCC(CN)C2)CC1 (centres unmarked) [Compound 24]
IC50 [1]: 10 to 50 µM

N#CC1(C(=O)NCc2cnc(-c3ccc4ccccc4c3)nc2N2CCC(CN)C2)CC1 (centres unmarked) [Compound 64]
IC50 [1]: 10 to 50 µM

CN1CC(Oc2nc(-c3ccc(Cl)c(C(F)(F)F)c3)ncc2CNC(=O)C2(C#N)CC2)C1 [Compound 78]
EC50 [2]: 10 to 50 µM

CN1CCC(Oc2nc(-c3ccc(Cl)c(C(F)(F)F)c3)ncc2CNC(=O)C2(C#N)CC2)C1 (centres unmarked) [Compound 79]
EC50 [2]: 10 to 50 µM

Cc1ccc(-c2ncc(CNC(=O)C3CNC3)c(N3CCC(CN)C3)n2)cc1Cl (centres unmarked) [Compound 85]
EC50 [2]: 1 to 10 µM

Cc1ccc(-c2ncc(CNC(=O)C3CN(C)C3)c(N3CCC(CN)C3)n2)cc1Cl (centres unmarked) [Compound 86]
EC50 [2]: 1 to 10 µM

Cc1ccc(-c2ncc(NS(=O)(=O)C3CC3)c(N3CCC(CN)C3)n2)cc1Cl (centres unmarked) [Compound 111]
IC50 [1]: 1 to 10 µM

Cc1ccc(-c2ncc(NC(=O)c3ccccc3)c(N3CCC(CN)C3)n2)cc1Cl (centres unmarked) [Compound 114]
IC50 [1]: 1 to 10 µM

Cc1ccc(-c2ncc(CNC(=O)C3(C#N)CC3)c(N3CCN(C)CC3)n2)cc1Cl [Compound 115]
IC50 [1]: 1 to 10 µM

N#CC1(C(=O)NCc2cnc(-c3ccc4c(c3)CC4)nc2N2CCC(CN)C2)CC1 (centres unmarked) [Compound 117]
IC50 [1]: 1 to 10 µM

Cc1ccc(-c2ncc(OCC(=O)N(C)C)c(N3CCC(CN)C3)n2)cc1Cl (centres unmarked) [Compound 127]
IC50 [1]: 1 to 10 µM

Cc1ccc(-c2ncc(CNC(=O)C3(F)CC3)c(CN3CCN(C)CC3)n2)cc1Cl [Compound 128, N-[[2-(3-chloro-4-methyl-phenyl)-4-[(4-methylpiperazin-1-yl)methyl]pyrimidin-5-yl]methyl]-1-fluoro-cyclopropanecarboxamide]
IC50 [1]: 10 to 50 µM

Cc1ccc(-c2ncc(CNC(=O)C3(C#N)CC3)c(N3CCC(CN(C)C)C3)n2)cc1Cl (centres unmarked) [Compound 129]
EC50 [2]: 1 to 10 µM

Cc1ccc(-c2ncc(CNc3ccccc3)c(N3CCC(CN)C3)n2)cc1Cl (centres unmarked) [Compound 130]
EC50 [2]: 1 to 10 µM

Cc1ccc(-c2ncc(OCC(=O)Nc3ccccc3)c(N3CCC(CN)C3)n2)cc1Cl (centres unmarked) [Compound 131]
EC50 [2]: 1 to 10 µM

Cc1ccc(-c2ncc(CNCC3CC3)c(N3CCC(CN)C3)n2)cc1Cl (centres unmarked) [Compound 132]
EC50 [2]: 1 to 10 µM

Cc1ccc(-c2ncc(CNC(=O)C(F)c3ccccc3)c(N3CCC(CN)C3)n2)cc1Cl (centres unmarked) [Compound 133]
EC50 [2]: 1 to 10 µM

Cc1ccc(-c2ncc(CNC(=O)C(F)(F)c3ccccc3)c(N3CCC(CN)C3)n2)cc1Cl (centres unmarked) [Compound 134]
EC50 [2]: 1 to 10 µM

Cc1ccc(-c2ncc(CNC(=O)C3Cc4ccccc4O3)c(N3CCC(CN)C3)n2)cc1Cl (centres unmarked) [Compound 135]
EC50 [2]: 1 to 10 µM

N#CC1(C(=O)NCc2cnc(-c3cc(F)c(C(F)(F)F)c(F)c3)nc2N2CCC(CN)C2)CC1 (centres unmarked) [Compound 137]
EC50 [2]: 1 to 10 µM

Cc1c(Cl)cc(-c2ncc(CNC(=O)C3(C#N)CC3)c(N3CCC(CN)C3)n2)cc1Cl (centres unmarked) [Compound 139]
EC50 [2]: 1 to 10 µM

Cc1c(F)cc(-c2ncc(CNC(=O)C3(C#N)CC3)c(N3CCC(CN)C3)n2)cc1[N+](=O)[O-] (centres unmarked) [Compound 140]
EC50 [2]: 1 to 10 µM

N#CC1(C(=O)NCc2cnc(-c3ccc(Cl)c(OC(F)(F)F)c3)nc2N2CCC(CN)C2)CC1 (centres unmarked) [Compound 141]
EC50 [2]: 1 to 10 µM

CN(C)CC1CCN(c2nc(-c3cc(Cl)cc(-c4ccccc4)c3)ncc2CNC(=O)C2(C#N)CC2)C1 (centres unmarked) [Compound 142]
EC50 [2]: 1 to 10 µM

CN(C)CC1CCN(c2nc(-c3cc(Cl)cc(C#Cc4ccccc4)c3)ncc2CNC(=O)C2(C#N)CC2)C1 (centres unmarked) [Compound 143]
EC50 [2]: 1 to 10 µM

CN(C)CC1CCN(c2nc(-c3cc(Cl)cc(/C=C/c4ccccc4)c3)ncc2CNC(=O)C2(C#N)CC2)C1 (centres unmarked) [Compound 144]
EC50 [2]: 1 to 10 µM

C#CC1(C(=O)NCc2cnc(-c3ccc(Cl)c(C(F)(F)F)c3)nc2N2CCC(CN)C2)CC1 (centres unmarked) [Compound 145]
EC50 [2]: 1 to 10 µM

C#Cc1cc(-c2ncc(CNC(=O)C3(C#N)CC3)c(N3CCC(CN(C)C)C3)n2)cc(F)c1C (centres unmarked) [Compound 147, 1-cyano-N-[[4-[3-[(dimethylamino)methyl]pyrrolidin-1-yl]-2-(3-ethynyl-5-fluoro-4-methyl-phenyl)pyrimidin-5-yl]methyl]cyclopropanecarboxamide]
EC50 [2]: 10 to 50 µM

CN(C)CC1CCN(c2nc(-c3cc(Cl)cc(Cc4ccccc4)c3)ncc2CNC(=O)C2(C#N)CC2)C1 (centres unmarked) [Compound 148]
EC50 [2]: 1 to 10 µM

CN(C)CC1CCN(c2nc(-c3cc(Cl)cc(C(F)c4ccccc4)c3)ncc2CNC(=O)C2(C#N)CC2)C1 (centres unmarked) [Compound 149]
EC50 [2]: 1 to 10 µM

CN(C)CC1CCN(c2nc(-c3ccc(Cc4ccccc4)c(Cl)c3)ncc2CNC(=O)C2(C#N)CC2)C1 (centres unmarked) [Compound 150]
EC50 [2]: 1 to 10 µM

— patent publication US20240327356A1, “PYRIMIDINE BASED RAS MODULATORS AND USES THEREOF” (QUANTA THERAPEUTICS, INC., priority 2021, published 2024)
